Results taken from patent US20160368943A1, “SUBSTITUTED PURINE COMPOUNDS” (EPIZYME, INC., priority 2013, published 2016).
Like-named read-outs stand apart in the source and are kept apart here.

Key:
[1] = Metabolite profiling in liver microsomes with NADPH and UDPGA, rat; assay type: in vitro ADME; conditions: Compound A 10 μM, 20 min
Protocol: Compound A was incubated with liver microsomes of various species (mouse, rat, dog or human). […] For all liver microsomal incubations, samples were taken at 0 and 20 minutes. All samples were quenched by using acetonitrile/methanol solution and analyzed using an LC-MS/MS Q-Trap system (AB Sciex, Framingham, Mass.).
The corresponding product ion tandem mass spectra of Compound A and its metabolites were obtained by using enhanced product ion (EPI) scans during positive ion electrospray. The possible chemical structures of the metabolites were deduced based on their MS1 and MS2 spectra.

P-glycoprotein (MDR1) = test: MDCK cell permeability, MDR1-transfected cells; assay type: in vitro ADME, dog; conditions: dog, 10 uM
Protocol: (§1) Samples were taken from the donor and receiver chambers at 120 minutes. Each determination was performed in duplicate. Co-dosed lucifer yellow flux was also measured for each monolayer to ensure cell monolayers remained intact during the incubation. All samples were assayed by LC-MS/MS.

[2] = test system: MDR1-MDCK (P-glycoprotein) cells; test: MDCK cell permeability, MDR1-transfected cells; assay type: in vitro ADME, dog; conditions: from relative efflux ratio, transfected vs native cells
Protocol: as §1

Plasma stability, human = assay type: in vitro ADME; conditions: pooled plasma, 37° C., read-out: Half-life in ex vivo blood plasma
Description: (§2) Samples were quenched in methanol and analyzed by LC-MS/MS analysis.

[3] = Liver microsome stability, rat; assay type: in vitro ADME
Protocol: (§3) The final incubation volume was 50 μL. Control incubations were included for each species where 0.1 M phosphate buffer pH 7.4 was added instead of NADPH (minus NADPH). Two control compounds were included for each species. […] The control (minus NADPH) was incubated for 45 minutes only. The reactions were stopped by transferring 25 μL of incubate to 50 μL methanol at the appropriate time points. The incubation plates were centrifuged at 2,500 rpm for 20 minutes at 4° C. to aid protein precipitation. Experimental half-lives were transformed to the corresponding intrinsic clearance values and subsequently scaled to predicted in vivo clearance values, using the well-stirred model as previously described (Houston, Biochemical Pharmacology 47(9): 1469-1479, 1994; Obach, Drug Metabolism and Disposition 27(11): 1350-1359, 1999), with appropriate species-specific scaling factors (Barter et al., Current Drug Metabolism 8(1): 33-45, 2007).

[4] = Hepatocyte stability, dog; assay type: in vitro ADME, Beagle dog
Protocol: Human, Beagle dog, Sprague-Dawley rat, and CD-1 mouse cryopreserved hepatocytes were obtained from XenoTech and stored at −150° C. until use. The hepatocytes were thawed and prepared according to the vendor's instructions, pooled into Krebs Henseleit buffer (KHB, pH 7.4), and kept on ice prior to initiating an experiment. […] The reaction mixture was incubated in a shaking water bath at 37° C. Aliquots of the incubation solutions were sampled at 0, 15, 30, 60, and 120 minutes. The reaction was immediately terminated by the addition of three volumes of ice-cold acetonitrile containing 0.1% formic acid and internal standards. After centrifugation at 1640×g for 10 minutes, the supernatants were transferred into HPLC vials, and the test compound was analyzed by LC-MS/MS. Positive controls, testosterone (20 μM) and 7-hydroxycoumarin (100 μM), were performed in parallel to confirm the enzyme activities of the hepatocytes used.
Experimental half-lives were transformed to the corresponding intrinsic clearance values and subsequently scaled to predicted in vivo clearance values, using the well-stirred model as previously described (Houston, Biochemical Pharmacology 47(9): 1469-1479, 1994; Obach, Drug Metabolism and Disposition 27(11): 1350-1359, 1999), with appropriate species-specific scaling factors (Barter et al., Current Drug Metabolism 8(1): 33-45, 2007).

[5] = Liver microsome stability, human; assay type: in vitro ADME
Protocol: as §3

[6] = Liver microsomes supplemented with UDPGA and alamethacin (glucuronidation); assay type: in vitro ADME
Plasma stability, rat = assay type: in vitro ADME; conditions: Sprague Dawley, pooled plasma, 37° C., read-out: Half-life in ex vivo blood plasma
Description: as §2

[7] = Pharmacokinetic study in mouse; assay type: in vivo, CD-1 mouse
Protocol: Oral and IV doses were administered by oral gavage, or by tail vein injection in a 10% ethanol and 90% saline vehicle, respectively. For PO dosing, samples were taken at 0.167, 0.5, 1, 2, 4, 6 and 24 h p.d. For IV administration, samples were taken at 0.05, 0.167, 0.5, 1, 2, 4, 6 and 24 h p.d. Blood samples were centrifuged at 4° C. (2000 g, 5 minutes) to obtain plasma within 15 minutes after sample collection. The levels of Compound A were quantitated in mouse plasma by LC-MS/MS analysis. […] Typically, samples were injected onto an LC-MS/MS system using a Waters BEH Phenyl column. The aqueous mobile phase was water with 0.1% NH4OH (A), and the organic mobile phase was acetonitrile with 0.1% NH4OH (B). The gradient was as follows: 37% B for the first 0.2 min, increased to 44% B from 0.2 to 0.6 min, maintained at 44% B for 0.5 min, and decreased to 37% B within 0.05 min. The injection volume was 2 uL, and the total run time was 1.5 min with a flow rate of 0.6 mL/min. […] The ionization was conducted in the positive ion mode using the MRM transition [M+H]+m/z 563.5 parent ion to m/z 326.3 daughter ion, incorporating a turbo-ionspray interface. Eight to ten calibration standards were prepared in blank plasma of the relevant species providing a typical standard curve concentration range of 5-500 ng/mL. Pharmacokinetic parameters were calculated by noncompartmental methods using WinNonlin (version 5.3; Pharsight, St. Louis, Mo.). Parameters are presented as mean±S.D.

[8] = liver microsomes, pH 7.4, NADPH, 3 μM
[9] = male, CD-1, mouse, plasma, iv, 5 mg/kg, IV bolus
[10] = male, plasma, CD-1 mouse, IV bolus, 5 mg/kg
[11] = male, plasma, CD-1 mouse, PO, 20 mg/kg

CC(C)N(C[C@H]1O[C@@H](n2cnc3c(N)ncnc32)[C@H](O)[C@@H]1O)[C@H]1C[C@@H](CCc2nc3cc(C(C)(C)C)ccc3[nH]2)C1 [Compound A, (2R,3R,4S,5R)-2-(6-amino-9H-purin-9-yl)-5-((((1r,3S)-3-(2-(5-(tert-butyl)-1H-benzo[d]imidazol-2-yl)ethyl)cyclobutyl)(isopropyl)amino)methyl)tetrahydrofuran-3,4-diol]
Abundance based on UV spectra [1]: 59.4%
Papp A→B at 120 min, 10 uM (P-glycoprotein (MDR1); MDCK-MDR1, MDCK - MDR1 transfected, Apical-to-basolateral): < 0.1 ×10⁻⁶ cm/s
Papp B→A at 120 min, 10 uM (P-glycoprotein (MDR1); MDCK - MDR1 transfected, Basolateral-to-apical): 0.22 ×10⁻⁶ cm/s
P-gp substrate (in words) [2]: not a substrate for P-gp
half-life at 1 μM (Plasma stability, human): > 120 min
microsomal CLint at 3 μM [3, 8]: 72 µL/min/mg
Scaled Hepatic CL from liver microsomes ([3]; well-stirred model): 45 mL/min/kg
Scaled Hepatic CL from hepatocytes [4]: 21 mL/min/kg
hepatocyte CLint at 3 μM ([4]; beagle, cryopreserved hepatocytes in suspension, pH 7.4, 3 μM): 14.9 µL/min/1e6 cells
microsomal CLint at 3 μM [5, 8]: 88 µL/min/mg
Scaled Hepatic CL from liver microsomes ([5]; well-stirred model): 17 mL/min/kg
turnover (glucuronidation) [6]: no turnover was observed
half-life at 1 μM (Plasma stability, rat): > 120 min
CL ([7]; CD-1 mouse, IV bolus, 5 mg/kg): 76.7 ± 11.5 mL/min/kg
t1/2 ([7]; CD-1 mouse, IV bolus, 5 mg/kg): 68.4 ± 21 min
F ([7]; CD-1 mouse, PO, 20 mg/kg): <1%
Vd ([7]; male, CD-1, mouse, plasma, iv, 5 mg/kg, CD-1 mouse, IV bolus, 5 mg/kg, read-out: VDss): 1.58 L/kg
clearance [7, 9]: 77 mL/min/kg
half-life [7, 9]: 66 min
Vd ([7]; male, CD-1, mouse, plasma, iv, 5 mg/kg, mouse, read-out: Unbound VDss): 11.4 L/kg
AUC(0-inf) [7, 10]: 1.96 ± 0.3 µM·h
AUC(0-t) [7, 10]: 1.95 ± 0.28 µM·h
Cmax [7, 10]: 7.99 ± 1.9 µM
MRT [7, 10]: 21 ± 3.6 min
Tmax [7, 10]: 3 min
AUC(0-t) [7, 11]: 0.0014 µM·h
Cmax [7, 11]: 0.0019 µM
Tmax [7, 11]: 30 min
oral bioavailability (in words) ([7]; mouse, PO): low and negligible
